Columns and labels:
NQO1 knockout mice [1] = details: cyclophosphamide alone (150 mg/kg i.p.), until day 18
Protocol: (§1) The day, on which the NQO1 knockout mice were hair-removed according to Example 1, was set as day 0, and the animals were divided into the following experimental groups and used for experiments: normal group (Control, 4 animals) in which only PBS is intraperitoneally injected on day 9; cyclophosphamide group (CYP, 6 animals) in which cyclophosphamide (150 mg/kg) is intraperitoneally injected on day 9; combination-treated group (CYP+Dunnione, 6 animals) in which dunnione is orally administered on a daily basis starting from 3 days prior to treatment with cyclophosphamide; and dunnione alone-treated group (Dunnione, 4 animals) in which only dunnione (20 mg/kg) is administered (FIG. 1).

Sirt1 protein = test: Expression level of Sirt1 protein in skin tissue (western blot), cyclophosphamide alopecia model; assay type: in vivo, mice; details: cyclophosphamide alone; day 18
Protocol: (§2) In the cyclophosphamide-induced alopecia mouse model of Example 2, expression level of Sirt1 protein and acetylation reaction of the target proteins thereof, NF-κB p65 and p53, were identified on the skin tissue obtained on day 18 after hair removal.
(§3) Specifically, 10 mg of the skin tissue obtained from the animal model prepared by the method in Example 2 was homogenized by addition of a lysis solution (RIPA lysis buffer). Then, centrifugation was performed at 14,000 rpm for 10 minutes. The protein concentration in the supernatant was quantified with a bovine serum albumin (BSA) standard solution. The skin tissue protein was used in an amount of 40 μg per test solution. First, the homogenized skin tissue was mixed with a sample solution (Bio-Rad, 161-0747) and inactivated at a temperature of 95° C. for 5 minutes. Thereafter, the protein was separated by a sodium dodecyl sulfate-polyacrylamide gel electrophoresis (SDS-PAGE) method, and then transferred to a nitrocellulose membrane. Treatment with anti-Sirt1 antibody (Abcam), anti-acetyl NF-κB p65 antibody and anti-acetyl p53 antibody (Cell Signaling Technologies), and anti-β-actin antibody (Santa Cruz Biotechnology) as primary antibodies were performed, and reaction was allowed to proceed. […]

NQO1 knockout mice [2] = details: cyclophosphamide alone, day 18
Protocol: as §1
(§4) The day, on which the NQO1 knockout mice were hair-removed according to Example 1, was set as day 0, and the mice in each of the experimental groups described in Example 3 were sacrificed on day 18. Subsequently, the mouse dorsal skin was dissected parallel or perpendicular to the vertebral line, and removed. The removed skin was fixed with a Bouin's solution for 12 hours, subjected to dehydration, and embedded in paraffin. Then, the resulting product was prepared into 5-μm sections. The prepared sections were subjected to hematoxylin and eosin (H&E) staining, and histological changes in the skin in each experimental group were observed.

Sirt1 = Sirt1 activity in skin tissue (fluorescent Sirt1 detection kit), cyclophosphamide alopecia model; assay type: in vivo, mice; details: cyclophosphamide alone; day 18
Protocol: In addition, the skin tissue obtained from the animal model prepared by the method in Example 2 was homogenized. The homogenized skin tissue was tested with the fluorescent Sirt1 detection kit (BML-AK555-0001) of Enzo Life Sciences International, Inc. according to the instruction manual, and then Sirt1 activity was analyzed. 40 μg of the homogenized skin tissue was mixed with a reaction solution (Fluor de Lys-Sirt1, NAD+, buffer solution (25 mM Tris-HCl (pH8.0), 137 mM NaCl, 2.7 mM […], 1 mM MgCl2, and 1 mg/mL BSA)), and reaction was allowed to proceed at a temperature of 37° C. for 1 hour. Then, additional reaction was allowed to proceed for 5 minutes under a condition in which a developer is added. In order to check the final Sirt1 activity, readings were measured for the reaction solution using the CytoFluor series 4000 fluorometer (PerSeptive Biosystems, Inc., USA) with the excitation wavelength set to 360 nm and the emission to 460 nm.

patients = details: cancer patients; Batchelor D., Eur J Cancer Care, 2001; cited from earlier work
NF-κB p65 = test: Acetylation of NF-κB p65 in skin tissue (western blot), cyclophosphamide alopecia model; assay type: in vivo, mice; details: cyclophosphamide alone; day 18
Protocol: as §2, §3

NAD^+ = test: NAD+ and NADH concentrations and NAD+/NADH ratio in skin tissue, cyclophosphamide alopecia model; assay type: in vivo, mice; details: cyclophosphamide alone vs normal group; day 18
Protocol: Specifically, in order to quantify the NAD^+ and NADH concentrations in the skin tissue obtained from the animal model prepared by the method in Example 2, the skin tissue was tested with the analysis kit (E2ND-100) of BioAssay Systems according to the instruction manual, and then the NAD^+/NADH ratio was analyzed. First, 10 mg of skin tissue was collected from the animal model. Then, 100 μl of extraction solution for NAD^+ or NADH was added to the skin tissue and homogenized. Then, the homogenized skin tissue was subjected to heat treatment at 60° C. for 5 minutes. Neutralization was performed by addition of the same volume of the extraction solution, and then centrifugation was performed at 14,000 rpm for 5 minutes to obtain the supernatant. Then, a developing reagent was added to the supernatant. The NAD^+ and NADH concentrations were determined from the absorbance measured at a wavelength of 565 nm, and the NAD^+/NADH ratio was analyzed.

p53 = test: Acetylation of p53 in skin tissue (western blot), cyclophosphamide alopecia model; assay type: in vivo, mice; details: cyclophosphamide alone; day 18
Protocol: as §2, §3

[3] = test system: C57BL/6 mice having alopecia caused by cyclophosphamide; details: cyclophosphamide alone (150 mg/kg i.p.); day 18
Protocol: as §1, with “the” for “the NQO1 knockout”, “in” for “according to”, “groups:” for “experimental groups and used for experiments:”
as §4, with “the” for “the NQO1 knockout”, “in” for “according to”, “2” for “3”

SMILES: O=P1(N(CCCl)CCCl)NCCCO1 (stereo not shown) [cyclophosphamide, reference compound]
- hair growth, visual observation of skin (NQO1 knockout mice [1]): hair hardly grew until day 18 after hair removal
- expression level of Sirt1 protein in skin tissue (Sirt1 protein): decreased
- development of hair follicles and inner root sheaths (histology) (NQO1 knockout mice [2]): the hair follicles have poorly developed or the inner root sheaths have insufficiently developed
- Sirt1 activity in skin tissue (Sirt1): decreased
- patients in whom the agent causes CIA (patients): ≥ 60%
- acetylation of NF-κB p65 in skin tissue (NF-κB p65): increased
- NAD^+ concentration in skin tissue (NAD^+): decreased
- NAD^+/NADH ratio in skin tissue (NAD^+): decreased
- acetylation of p53 in skin tissue (p53): increased
- development of hair follicles and inner root sheaths (histology) [3]: the hair follicles have poorly developed or the inner root sheaths have insufficiently developed
